In this test the test system is bone cancer cell line MG-63. As to the kind of experiment: In vitro survival assay (MTT) for inhibition of bone cancer cells. The following applies: Homo sapiens, MG-63 cells, 48 hours treatment, absorbance at 570 nm, read-out: IC50 (half inhibition concentration), survival of bone cancer cells. It is filed as cell-based. The protocol: Inhibiting effects of bone cancer cells by cyclohexenone compounds of Antrodia camphorata from example 1 were assessed according to the anticancer-drug screening model of National Cancer Institute (NCI). The compound 4-hydroxy-2,3-dimethoxy-6-methyl-5-(3,7,11-trimethyl-dodeca-2,6,10-trienyl)-cyclohex-2-enone from example 1 was added into the culture media of bone cancer cell line MG-63 to determine the survival rates. Survival of cell was analyzed using MTT assay. MG-63 cell line was an osteoblast-like fibroblast cell line and derived from human osteosarcoma, which had similar cell type and feature with osteoblast.
MTT assay is commonly used to analyze cell proliferation, survival rate of viable cells and cytotoxicity. MTT (3[4,5-dimethylthiazol-2-yl]-2,5-diphenyltetrazolium bromide) is a yellow dye which can be converted to water-insoluble purple formazan on the reductive cleavage of its tetrazolium ring by the succinate tetrazolium reductase in mitochondria of cells. The amount of formazan produced is used to detect the number of viable cells and calculate the survival rates.
The MG-63 cells were cultivated in Dulbecco's modified Eagle's medium (DMEM) supplemented with 10% fetal bovine serum, 100 IU/ml of Penicillin and […] of Streptomycin at 37° C., 5% CO2 for 24 hours. […] The absorbances were measured at 570 nm with an ELISA Reader to determine the survival rates.

Regarding `COC1=C(OC)C(O)C(C/C=C(\C)CC/C=C(\C)CCC=C(C)C)C(C)C1=O` (stereo not shown) [formula 2, 4-hydroxy-2,3-dimethoxy-6-methyl-5-(3,7,11-trimethyl-dodeca-2,6,10-trienyl)-cyclohex-2-enone], the IC50 stood at 2.09 µg/mL.
